Reference: PMC6968641, “N-monoarylacetothioureas as potent urease inhibitors: synthesis, SAR, and biological evaluation” (Journal of Enzyme Inhibition and Medicinal Chemistry, 2019)
Values after ≈ are worked out from the molar mass of the structure shown. Where two headings read alike, the source gives them in different places.

Key:
H. pylori urease = target: T1, H. pylori urease (Helicobacter pylori, UniProt P69996); experiment: Urease inhibition, extracted H. pylori urease (indophenol method); format: biochemical; details: extracted H. pylori urease
T1 construct: endogenous in cells; host or cells: H. pylori ATCC 43504; sonicated, supernatant desalted on Sephadex G-25 (crude extract)
T1 sequence (P14916 whole entry): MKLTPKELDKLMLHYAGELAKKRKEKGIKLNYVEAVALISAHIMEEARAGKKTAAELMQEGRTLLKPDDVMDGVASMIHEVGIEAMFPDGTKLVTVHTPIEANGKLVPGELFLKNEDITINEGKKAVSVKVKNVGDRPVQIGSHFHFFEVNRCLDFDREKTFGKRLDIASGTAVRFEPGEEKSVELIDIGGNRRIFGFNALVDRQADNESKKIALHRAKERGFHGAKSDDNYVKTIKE
T1 sequence (P69996 whole entry): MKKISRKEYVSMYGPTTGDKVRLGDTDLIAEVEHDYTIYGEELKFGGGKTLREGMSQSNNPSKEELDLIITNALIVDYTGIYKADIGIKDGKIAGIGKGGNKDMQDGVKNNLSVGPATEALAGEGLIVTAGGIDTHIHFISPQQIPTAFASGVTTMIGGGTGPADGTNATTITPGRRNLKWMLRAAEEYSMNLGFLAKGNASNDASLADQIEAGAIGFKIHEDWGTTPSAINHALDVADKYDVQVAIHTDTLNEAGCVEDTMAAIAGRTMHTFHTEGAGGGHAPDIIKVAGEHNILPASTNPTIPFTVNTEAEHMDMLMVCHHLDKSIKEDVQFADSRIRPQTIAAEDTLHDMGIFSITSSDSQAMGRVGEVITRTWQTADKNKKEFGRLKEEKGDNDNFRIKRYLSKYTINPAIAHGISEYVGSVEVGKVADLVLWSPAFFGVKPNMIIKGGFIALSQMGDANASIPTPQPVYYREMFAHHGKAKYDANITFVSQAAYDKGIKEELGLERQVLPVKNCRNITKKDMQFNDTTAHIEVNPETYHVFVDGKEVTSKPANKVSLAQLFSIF
Protocol: For urease inhibition assays, 50 mL broth cultures (2.0 × 10^8 CFU/mL) were centrifuged (5000×g, 4 °C) to collect the bacteria, and after washing twice with phosphate-buffered saline (pH 7.4), the H. pylori precipitation was stored at –80 °C for 8 h, and then was returned to room temperature, and after addition of 3 mL of distilled water and protease inhibitors, sonication was performed for 60 s. Following centrifugation (15,000×g, 4 °C), the supernatant was desalted through Sephadex G-25 column (PD-10 columns, Amersham Pharmacia Biotech, Uppsala, Sweden). The resultant crude urease solution was added to an equal volume of glycerol and stored at 4 °C until use in the experiment.
Urease activity was determined in the 96-well assay plate by measuring ammonia production using the indophenol method as described by Weatherburn[20]. Briefly, to each well, 50 µL of urea (10 mM) in phosphate buffer solution was added in a mixture of 25 µL (10 U) of H. pylori urease and 25 µL of the test compound, which was incubated at 37 °C for 0.5 h. Fifty µL of phenol reagent (containing 127 mM phenol and 0.168 mM sodium nitroprusside) and 50 µL of alkali reagent (containing 125 mM NaOH and 0.168 mM NaOCl) were added in turn. The resulted mixture was incubated at 37 °C for another 0.5 h for colouration developing. The increasing absorbance was measured at 630 nm after 50 min using a microplate reader (Molecular Devices, San Jose, CA). Percentage inhibitions were calculated from the following formula (Equation (1)). Experiments were performed in triplicate and AHA was used as reference drug, and the IC50 value was determined as the concentration of compound that give 50% inhibition of maximal activity. As for the urease assay of intact cells, 25 µL (10 U) of H. pylori urease was replaced by 25 µL of cell suspension (4.0 × 10^7 CFU/mL).

[1] = target: T2, urease in intact H. pylori cell (Helicobacter pylori, UniProt P69996); experiment: Urease inhibition in intact H. pylori cell (indophenol method); format: cell-based
T2 construct: H. pylori urease was replaced by 25 µL of cell suspension (4.0 × 10^7 CFU/mL); endogenous in cells; host or cells: intact H. pylori ATCC 43504 cells
T2 sequence (P69996 whole entry): as above
T2 sequence (P14916 whole entry, further chain): as the sequence (P14916 whole entry) above

H. pylori = experiment: Minimum inhibitory concentration, broth microdilution (CLSI); format: cell-based, Helicobacter pylori (ATCC 43504)
Protocol: H. pylori (ATCC 43504; […] The minimum inhibitory concentration (MIC) values were determined using the broth microdilution protocol according to the methods of the Clinical and Laboratory Standards Institute (CLSI)[21].

Jack bean urease [2] = target: T3, Jack bean urease (Canavalia ensiformis, UniProt P07374); experiment: Ligand affinity by surface plasmon resonance (SPR); format: binding; details: for kon: pH 7.4; for koff: pH 7.4, SPR, immobilised urease, PBS pH 7.4
T3 construct: purchased
T3 sequence (P07374 whole entry, looked up): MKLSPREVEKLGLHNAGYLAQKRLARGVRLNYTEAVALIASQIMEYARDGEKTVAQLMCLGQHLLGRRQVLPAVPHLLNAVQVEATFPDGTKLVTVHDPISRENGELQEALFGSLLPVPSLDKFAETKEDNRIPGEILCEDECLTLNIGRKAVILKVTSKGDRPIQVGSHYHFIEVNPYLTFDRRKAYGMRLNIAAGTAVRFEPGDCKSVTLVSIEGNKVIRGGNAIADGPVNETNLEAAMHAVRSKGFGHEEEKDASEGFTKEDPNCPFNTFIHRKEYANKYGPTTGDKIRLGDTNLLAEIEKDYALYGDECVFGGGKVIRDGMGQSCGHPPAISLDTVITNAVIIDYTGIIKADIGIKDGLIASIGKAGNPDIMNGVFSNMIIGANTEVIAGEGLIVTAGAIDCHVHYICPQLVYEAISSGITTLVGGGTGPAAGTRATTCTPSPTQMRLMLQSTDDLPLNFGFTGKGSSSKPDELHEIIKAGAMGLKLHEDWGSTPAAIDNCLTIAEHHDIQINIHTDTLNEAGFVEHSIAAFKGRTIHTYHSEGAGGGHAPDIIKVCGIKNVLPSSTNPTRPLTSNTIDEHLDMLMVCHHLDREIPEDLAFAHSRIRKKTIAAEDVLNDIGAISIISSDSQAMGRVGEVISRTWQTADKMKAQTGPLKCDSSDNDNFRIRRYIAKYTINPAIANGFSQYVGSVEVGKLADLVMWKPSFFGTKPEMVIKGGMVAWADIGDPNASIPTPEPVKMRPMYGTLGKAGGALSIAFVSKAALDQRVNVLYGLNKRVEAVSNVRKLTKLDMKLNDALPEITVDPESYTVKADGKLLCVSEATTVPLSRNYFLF
Protocol: The binding kinetics of selected compounds were assayed via surface plasmon resonance (SPR) using an OPEN SPR instrument (Nicoya Lifesciences, Kitchener, Canada). First, urease dissolved (50 µg/mL) in PBS buffer (1 mM KH2PO4, 155 mM NaCl, 3 mM Na2HPO4-12H2O, pH 7.4), was immobilised to a CM5 chip using a standard amine coupling procedure. Then, SPR measurements were carried out in PBS, and stock solutions were diluted in the same buffer. Data were collected with OpenSPR control software. Experiments were performed by monitoring the refractive index changes as a function of time under constant flow rate of 20 µL/min. The relative amount of inhibitor bound to the urease was determined by measuring the net increase in refractive index over time compared to control running buffer. There is an inline subtraction of reference surface during the run. This change is usually reported in response units (RU). Sensograms were processed and analysed using TraceDrawer software. The binding curves were fit to determine the equilibrium dissociation constant (KD).
In the present paper, the pure Jack bean urease from commercial was used for this assay because of non-availability of pure H. pylori urease. […] For efficient and tight ligand binding, the rate constant koff is of particular interest, because koff has a potential to differentiate indistinguishable compounds with similar affinities.

Jack bean urease [3] = target: T3, Jack bean urease; experiment: Enzyme kinetic study (indophenol method); format: biochemical; details: for Type of inhibition: Jack bean urease; for Ki': dissociation constant of urease-urea-inhibitor complex
Protocol: Based on the indophenol method, the velocity of ammonia production (V) was measured in the presence of concentration gradients of urea ([S]) for every specific concentration of selected compounds ([I]). Nonlinear fitting curves to data of V and [S] were used to determine the type of enzyme inhibition based on the general kinetics equation (Equation (1)). Subsequently, the resulted fitting constants ( Km/Vmax(1+[I]/Ki) or 1/Vmax(1+[I]/Ki′) ) and [I] were linearly fitted to give kinetic parameters Ki and Ki', respectively. The experimental assay was performed against a pure urease (Jack bean urease) for the consideration of precision. (1) V=Vmax[S]/Km(1+[I]/Ki)+(1+[I]/K^′i)[S]
Mazzei et al. confirmed that urease shared the mechanism of catalysis and inhibition regardless of the biological sources[27]^,[28]. For excluding the possible interference, a pure urease (Jack bean urease) was therefore used for kinetic assays. As an example, Figure 2 describes the preincubation-time dependence of urease inhibition by b19. The suppressed urease activity maintained at relatively constant values with the increasing preincubation time under different concentrations of b19, resulting in nearly equal IC50 values.
Similarly, kinetic parameters ( Ki and Ki' ) and inhibition types of other compounds were also determined and are shown in Table 3.

[4] = Cytotoxicity MTT assay, L-02; format: cell-based; details: human, L-02 cells (normal hepatic cell line), 25 μg/mL
Protocol: (§1) The stock solutions of the selected compounds (250 µg/mL, in PBS) were prepared in medium. L-02 cells and P69 cells were grown in medium (90% RPMI-1640 medium, 10% foetal bovine serum, 1% penicillin/streptomycin) and maintained at 37 °C in a humidified atmosphere containing 5% CO2, respectively. Cells were seeded in 96-well cell culture plates. On the day when seeding, the cells were exposed to 250 µg/mL of compounds and further cultured for 72 h at 37 °C. Cell proliferation was then determined using the thiazolyl blue tetrazolium bromide (MTT) assay.

[5] = Cytotoxicity MTT assay, P69; format: cell-based; details: human, P69 cells (normal prostate cell line), 25 μg/mL
Protocol: as §1

[6] = Helicobacter pylori, pH=4.0, read-out: MIC pH=4.0
[7] = Helicobacter pylori, pH=7.0, read-out: MIC pH=7.0

NC(=S)NC(=O)Cc1cccc(O)c1 [b4]
IC50 (H. pylori urease; IC50 Extracted urease): 16.3 ± 0.3 µM
IC50 [1]: 108 ± 6.1 µM
MIC (H. pylori; [6]): 64 µM (≈ 13.5 µg/mL)
MIC (H. pylori; [7]): > 64 µM
Kd (Jack bean urease [2]): 644 ± 9.2 nM
kon (Jack bean urease [2]): 60800 M⁻¹ s⁻¹
koff (Jack bean urease [2]): 0.0389 s⁻¹
Ki (Jack bean urease [3]): 4.34 µM
Type of inhibition (Jack bean urease [3]): Reversible
Ki' (Jack bean urease [3]): 8.52 µM
viability at 72 h, 25 µg/mL [4]: 93.7%
viability at 72 h, 25 µg/mL [5]: 88.1%
melting point: 160.3 to 161.5 °C

COc1ccc(CC(=O)NC(N)=S)cc1OC [b10]
IC50 (H. pylori urease; IC50 Extracted urease): 24.2 ± 0.6 µM
IC50 [1]: 207 ± 16 µM
viability at 72 h, 25 µg/mL [4]: 108%
viability at 72 h, 25 µg/mL [5]: 95.3%
melting point: 146.3 to 147.6 °C

NC(=S)NC(=O)Cc1ccc(O)c(O)c1 [b29]
IC50 (H. pylori urease; IC50 Extracted urease): 18.4 ± 1.6 µM
IC50 [1]: 143 ± 6 µM
Kd (Jack bean urease [2]): 783 ± 21.3 nM
kon (Jack bean urease [2]): 19800 M⁻¹ s⁻¹
koff (Jack bean urease [2]): 0.0155 s⁻¹
Ki (Jack bean urease [3]): 8.21 µM
Type of inhibition (Jack bean urease [3]): Reversible
Ki' (Jack bean urease [3]): 21.5 µM
melting point: 153.5 to 155 °C

NC(=S)NC(=O)Cc1ccc(O)cc1 [b8]
IC50 (H. pylori urease; IC50 Extracted urease): 9.93 ± 0.9 µM
IC50 [1]: 52.5 ± 3.9 µM
MIC (H. pylori; [6]): 8 µM (≈ 1.68 µg/mL)
MIC (H. pylori; [7]): 64 µM (≈ 13.5 µg/mL)
Kd (Jack bean urease [2]): 311 ± 10.3 nM
kon (Jack bean urease [2]): 9.38e+06 M⁻¹ s⁻¹
koff (Jack bean urease [2]): 0.00292 s⁻¹
Ki (Jack bean urease [3]): 2.54 µM
Type of inhibition (Jack bean urease [3]): Reversible
Ki' (Jack bean urease [3]): 11.3 µM
viability at 72 h, 25 µg/mL [4]: 92.1%
viability at 72 h, 25 µg/mL [5]: 94.6%
melting point: 177.1 to 178.3 °C

NC(=S)NC(=O)Cc1ccc(Cl)cc1Cl [b21]
IC50 (H. pylori urease; IC50 Extracted urease): 67.7 ± 4.3 µM
melting point: 166.6 to 167.2 °C

NC(=S)NC(=O)Cc1ccccc1[N+](=O)[O-] [b20]
IC50 (H. pylori urease; IC50 Extracted urease): 183 ± 12 µM
melting point: 177.6 to 178.4 °C

NC(=S)NC(=O)C(c1ccccc1)c1ccccc1 [b25]
IC50 (H. pylori urease; IC50 Extracted urease): 318 ± 24 µM
melting point: 169.5 to 172.7 °C

NC(=S)NC(=O)Cc1ccc(-c2ccccc2)cc1 [b26]
IC50 (H. pylori urease; IC50 Extracted urease): 279 ± 16 µM
melting point: 187.3 to 189.6 °C

NC(=S)NC(=O)Cc1cccc(Br)c1 [b2]
IC50 (H. pylori urease; IC50 Extracted urease): 58.4 ± 4.3 µM
melting point: 207.4 to 208.8 °C

NC(=S)NC(=O)Cc1cccc(C(F)(F)F)c1 [b9]
IC50 (H. pylori urease; IC50 Extracted urease): 136 ± 7 µM
melting point: 204.3 to 205.8 °C

COc1ccc(CC(=O)NC(N)=S)cc1 [b11]
IC50 (H. pylori urease; IC50 Extracted urease): 16.3 ± 1.2 µM
IC50 [1]: 98.3 ± 5.9 µM
MIC (H. pylori; [6]): 32 µM (≈ 7.18 µg/mL)
MIC (H. pylori; [7]): > 64 µM
Kd (Jack bean urease [2]): 667 ± 13.7 nM
kon (Jack bean urease [2]): 572000 M⁻¹ s⁻¹
koff (Jack bean urease [2]): 0.0381 s⁻¹
Ki (Jack bean urease [3]): 3.94 µM
Type of inhibition (Jack bean urease [3]): Reversible
Ki' (Jack bean urease [3]): 12.7 µM
viability at 72 h, 25 µg/mL [4]: 97%
viability at 72 h, 25 µg/mL [5]: 87.5%
melting point: 143.5 to 144.7 °C

CC(=O)NO [AHA, acetohydroxamic acid, reference compound]
IC50 (H. pylori urease; read-out: IC50 Extracted urease): 27.2 ± 0.7 µM
IC50 ([1]; intact H. pylori cell suspension, read-out: IC50 Urease in intact cell): 171 ± 9 µM
MIC (H. pylori; pH=4.0, read-out: MIC pH=4.0): 16.0 µM (≈ 1.2 µg/mL)
MIC (H. pylori; pH=7.0, read-out: MIC pH=7.0): >64.0 µM

NC(=S)NC(=O)Cc1ccc([N+](=O)[O-])cc1 [b22]
IC50 (H. pylori urease; IC50 Extracted urease): 155 ± 16 µM
melting point: 199.1 to 200.9 °C

NC(=S)NC(=O)Cc1cccc2ccccc12 [b27]
melting point: 195.5 to 197.9 °C
